Source: the supplement of paper PMC10307832

Key:
Test in all cases: relative viability (nuclei count vs DMSO), 5 days (fraction); higher = more cells survive
Bexarotene + Lapatinib = compound: C=C(c1ccc(C(=O)O)cc1)c1cc2c(cc1C)C(C)(C)CCC2(C)C [Bexarotene] + CS(=O)(=O)CCNCc1ccc(-c2ccc3ncnc(Nc4ccc(OCc5cccc(F)c5)c(Cl)c4)c3c2)o1 [Lapatinib] (partner 2 µM)
Outline: (§1)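 The day after seeding in 1536-well plates, lung cancer cell lines were treated by pin tool with a single drug, or with a fixed anchor-drug dose together with five library-drug doses (not always all listed) in √10 steps. After 5 days, a combined fix-and-stain solution (final 0.05% Triton X-100, 1% formaldehyde, 1 ug/ml Hoechst) was added. Nuclei counted on 4× images gave relative viability as treated counts over vehicle counts, reported as the median of duplicate plates.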

Bexarotene + Luminespib = compound: C=C(c1ccc(C(=O)O)cc1)c1cc2c(cc1C)C(C)(C)CCC2(C)C [Bexarotene] + CCNC(=O)c1noc(-c2cc(C(C)C)c(O)cc2O)c1-c1ccc(CN2CCOCC2)cc1 [Luminespib] (partner 0.01 µM)
Outline: as §1

Bexarotene + Olaparib = compound: C=C(c1ccc(C(=O)O)cc1)c1cc2c(cc1C)C(C)(C)CCC2(C)C [Bexarotene] + O=C(c1cc(Cc2n[nH]c(=O)c3ccccc23)ccc1F)N1CCN(C(=O)C2CC2)CC1 [Olaparib] (partner 8 µM)
Outline: as §1

Bexarotene + Decitabine = compound: C=C(c1ccc(C(=O)O)cc1)c1cc2c(cc1C)C(C)(C)CCC2(C)C [Bexarotene] + Nc1ncn([C@H]2C[C@H](O)[C@@H](CO)O2)c(=O)n1 [Decitabine] (partner 2 µM)
Outline: as §1

Row | Cell Line | relative viability (Bexarotene + Lapatinib; first compound 0.08 µM) | relative viability (Bexarotene + Lapatinib; first compound 0.253 µM) | relative viability (Bexarotene + Lapatinib; first compound 0.8 µM) | relative viability (Bexarotene + Lapatinib; first compound 2.53 µM) | relative viability (Bexarotene + Lapatinib; first compound 8 µM) | relative viability (Bexarotene + Luminespib; first compound 0.08 µM) | relative viability (Bexarotene + Luminespib; first compound 0.253 µM) | relative viability (Bexarotene + Luminespib; first compound 0.8 µM) | relative viability (Bexarotene + Luminespib; first compound 2.53 µM) | relative viability (Bexarotene + Luminespib; first compound 8 µM) | relative viability (Bexarotene + Olaparib; first compound 0.08 µM) | relative viability (Bexarotene + Olaparib; first compound 0.253 µM) | relative viability (Bexarotene + Olaparib; first compound 0.8 µM) | relative viability (Bexarotene + Olaparib; first compound 2.53 µM) | relative viability (Bexarotene + Olaparib; first compound 8 µM) | relative viability (Bexarotene + Decitabine; first compound 0.08 µM) | relative viability (Bexarotene + Decitabine; first compound 0.253 µM) | relative viability (Bexarotene + Decitabine; first compound 0.8 µM) | relative viability (Bexarotene + Decitabine; first compound 2.53 µM) | relative viability (Bexarotene + Decitabine; first compound 8 µM)
1 | NCI-H1651 | 1.08 | 0.968 | 0.887 | 0.862 | 0.753 | 1.06 | 0.881 | 0.938 | 0.845 | 0.911 | 0.201 | 0.226 | 0.208 | 0.206 | 0.197 | 0.77 | 0.548 | 0.66 | 0.638 | 0.618
2 | NCI-H1666 | 0.753 | 0.588 | 0.446 | 0.512 | 0.504 | 0.922 | 0.978 | 0.916 | 0.907 | 0.816 | 0.714 | 0.754 | 0.694 | 0.691 | 0.63 | 0.813 | 0.696 | 0.773 | 0.689 | 0.693
3 | NCI-H1734 | 1.02 | 1.04 | 1.07 | 0.942 | 0.944 | 0.2 | 0.182 | 0.177 | 0.172 | 0.195 | 0.669 | 0.648 | 0.573 | 0.709 | 0.633 | 0.522 | 0.461 | 0.498 | 0.483 | 0.441
4 | EPLC-272H | 0.982 | 0.825 | 0.898 | 0.746 | 0.865 | 0.304 | 0.332 | 0.252 | 0.303 | 0.258 | 0.824 | 0.773 | 0.641 | 0.758 | 0.845 | 0.414 | 0.36 | 0.353 | 0.368 | 0.414
5 | NCI-H2023 | 1.03 | 1.14 | 0.979 | 0.63 | 0.595 | 0.903 | 0.86 | 0.618 | 0.568 | 0.547 | 0.461 | 0.542 | 0.406 | 0.428 | 0.288 | 0.224 | 0.218 | 0.214 | 0.197 | 0.205
6 | BEN | 0.869 | 0.51 | 0.623 | 0.513 | 0.66 | 0.336 | 0.247 | 0.409 | 0.078 | 0.252 | 1.05 | 0.942 | 1 | 0.853 | 1.06 | 0.706 | 0.666 | 0.723 | 0.647 | 0.692
7 | COR-L 105 | 0.404 | 0.33 | 0.322 | 0.378 | 0.345 | 0.851 | 0.764 | 0.812 | 0.698 | 0.866 | 0.698 | 0.743 | 0.898 | 0.784 | 0.913 | 0.731 | 0.704 | 0.664 | 0.616 | 0.578
8 | ABC-1 | 0.914 | 1.38 | 1.14 | 1.16 | 1.09 | 0.591 | 0.654 | 0.597 | 0.576 | 0.677 | 0.827 | 0.839 | 0.478 | – | 0.631 | 1.21 | 0.927 | 1.12 | – | 1.09
9 | HCC-15 | 0.93 | 0.984 | 0.944 | 0.833 | 0.846 | 0.192 | 0.314 | 0.321 | 0.353 | 0.231 | 0.666 | 0.703 | 0.721 | 0.654 | 0.689 | 0.762 | 0.72 | 0.611 | 0.588 | 0.568
10 | NCI-H2170 | 0.264 | 0.245 | 0.275 | 0.305 | 0.273 | 0.835 | 0.697 | 0.721 | 0.464 | 0.695 | 0.576 | 0.645 | 0.574 | 0.609 | 0.562 | 0.438 | 0.463 | 0.446 | 0.417 | 0.465
11 | PC-3 [JPC-3] | 0.519 | 0.48 | 0.427 | 0.466 | 0.446 | 0.645 | 0.618 | 0.635 | 0.775 | 0.616 | 1.01 | 1.1 | 1.02 | 1.06 | 0.938 | 0.874 | 0.865 | 0.88 | 0.745 | 0.781
12 | NCI-H1993 | 0.858 | 0.826 | 0.809 | 0.802 | 0.814 | 1.09 | 0.783 | 0.792 | 0.859 | 0.815 | 0.979 | 1.08 | 0.94 | 1.01 | 0.896 | 0.537 | 0.484 | 0.554 | 0.576 | 0.608
13 | NCI-H358 | 0.461 | 0.464 | 0.483 | 0.574 | 0.535 | 0.136 | 0.306 | 0.325 | 0.244 | 0.121 | 0.855 | 0.596 | 0.573 | 0.625 | 0.551 | 0.212 | 0.216 | 0.184 | 0.222 | 0.185
14 | NCI-H1915 | 1.1 | 0.793 | 0.979 | 0.999 | 1.04 | 0.805 | 0.742 | 0.748 | 0.714 | 0.724 | 0.265 | 0.262 | 0.284 | 0.278 | 0.242 | 0.272 | 0.259 | 0.274 | 0.255 | 0.23
15 | RERF-LC-KJ | 0.798 | 0.799 | 0.702 | 0.767 | 0.757 | 1.17 | 1.23 | 1.1 | 1.1 | 1.07 | 0.991 | 0.885 | 0.812 | 0.888 | 0.865 | 0.692 | 0.656 | 0.682 | 0.7 | 0.739
16 | LOU-NH91 | 0.736 | 0.755 | 0.691 | 0.695 | 0.722 | 0.364 | 0.318 | 0.346 | 0.287 | 0.268 | 0.905 | 0.932 | 0.875 | 0.841 | 0.823 | 0.854 | 0.841 | 0.833 | 0.773 | 0.717
